Test results published in PubChem BioAssay AID1963835 (Molecular Pharmacology Branch, DTP, NCI, 2024).

Test system: 699152-130-R-J1-PDC complex spheroid viability
Assay: Anticancer human tumor 699152-130-R-J1-PDC patient-derived pancreatic carcinoma cell line growth inhibition [POLQ]
Conditions: for IC50: curve of first compound; for viability, T/C: stronger effect = lower value; active means viability on the fitted dose curve at most 10% of control; inactive means the rest
Protocol: Multicellular complex tumor spheroid response to Polymerase (POL) inhibitors (novobiocin, ART-558, RP6685) in combination with a variety of drugs and investigational agents in selected tumor cell lines
The POL inhibitors (novobiocin, ART-558, and RP6685) were evaluated both individually and in combination with standard of care and investigational anticancer small molecules within a complex spheroid model of solid tumors. . Complex spheroids include a stromal component modeled by human endothelial cells (HUVEC) and fibroblasts modeled by human mesenchymal stem cells (MSCs). The concentration ranges selected for each drug and investigational agent were based upon clinically achievable concentrations if the clinical Cmax of the agent was known.
Compounds. The drugs and investigational agents: novobiocin (NSC847541), ART-558 (NSC835418), RP-6685 (NSC848927), peposertib (NSC802822), ceralasertib (NSC780249), elimusertib (NSC800525), camonsertib (NSC841442), AZD-1390 (NSC803789), olaparib (NSC753686), talazoparib (NSC767125), rucaparib (NSC756644), sotorasib (NSC818433), MRTX-1133 (NSC836407), SN-38 (NSC673596), topotecan (NSC609699), epotoside (NSC141540), doxorubicin (NSC123127), gemcitabine (NSC613327), 5-fluorouracil (NSC19893), paclitaxel (NSC125973), vemurafenib (NSC761431), MSA-2 (NSC828583), SN-011 (NSC837082), adavosertib (NSC754352), prexasertib (NSC758257), carboplatin (NSC241240) and oxaliplatin (NSC266046), were obtained from the National Cancer Institute (NCI) Developmental Therapeutics Program Chemical Repository (21). The FDA-approved anticancer drug set is available from the Developmental Therapeutics Program at https://dtp.cancer.gov/organization/dscb/obtaining/. […] The stock solutions were prepared in dimethyl sulfoxide (DMSO, Sigma-Aldrich, St. Louis, MO, cat. D2650), except for the platinum compounds which were prepared in saline (Quality Biological, Gaithersburg, MD, cat. 114-055-101), at 800-fold the tested concentration and stored at -70 degrees C prior to their use. All drugs and investigational agents were tested over a range starting from a high concentration at or near the clinical Cmax and decreasing in half-log increments. If the clinical Cmax for an agent had not been determined, the highest concentration tested was 10 microM, except for SN-38, which was tested at a high concentration of 1 microM.
Cell Culture. All cells were maintained in an incubator at 37 degrees C and 5% CO2 with 95% humidity. The PDC lines were cultured according to standard operating procedures established by the NCI PDMR (https://pdmr.cancer.gov). Table 3 of the manuscript, lists the cell lines along with the number of the three cell types plated to form the mct-spheroids and media for tumor cell growth. After thawing, all PDC lines, except 997537-175-T-J1-PDC and 415267-285-R-J2-PDC, were cultured in Matrigel-coated flasks prepared with a working solution of 1X Ham's F-12 nutrient mix, without supplementation (Thermo Fisher Scientific, cat. 11765054), 100 U/mL penicillin-streptomycin (Thermo Fisher Scientific, cat. 15140122), and 2.5% Matrigel (Corning Inc., Corning, NY, cat. 354248) for the first three passages. The two PDC lines 997537-175-T-J1-PDC and 415267-285-R-J2-PDC were cultured on uncoated flasks. The 857933-349-R-J2-PDC line was cultured in 6C/Colon 1B media containing advanced DMEM/F-12 (Thermo Fisher Scientific, cat. 12634028), 10 mM HEPES (Thermo Fisher Scientific, cat. 15630080), 1X GlutaMAX supplement (Thermo Fisher Scientific, cat. 35050061), 0.1 mg/mL primocin (InvivoGen, San Diego, CA, cat. ant-pm-2), 10% defined fetal bovine serum, heat inactivated (HyClone Laboratories Inc., Logan, UT, cat. SH30070.03HI), 50% L-WRN conditioned media (ATCC, cat. CRL-3276), 1.25 mM N-Acetyl-L-cysteine (Sigma-Aldrich, cat. A9165), 10 mM nicotinamide (Sigma-Aldrich, cat. N0636), 1X B-27 supplement (Thermo Fisher Scientific, cat. 17504044), 1X N-2 supplement (Thermo Fisher Scientific, cat. […]

[1] = second compound 0.0316 µM, first compound 0.0316 µM
[2] = second compound 0.0316 µM, first compound 0.1 µM
[3] = second compound 0.0316 µM, first compound 0.316 µM
[4] = second compound 0.0316 µM, first compound 1 µM
[5] = second compound 0.0316 µM, first compound 3.16 µM
[6] = second compound 0.0316 µM, first compound 10 µM
[7] = second compound 0.1 µM, first compound 0.0316 µM
[8] = second compound 0.1 µM, first compound 0.1 µM
[9] = second compound 0.1 µM, first compound 0.316 µM
[10] = second compound 0.1 µM, first compound 1 µM
[11] = second compound 0.1 µM, first compound 3.16 µM
[12] = second compound 0.1 µM, first compound 10 µM
[13] = second compound 0.316 µM, first compound 0.0316 µM
[14] = second compound 0.316 µM, first compound 0.1 µM
[15] = second compound 0.316 µM, first compound 0.316 µM
[16] = second compound 0.316 µM, first compound 1 µM
[17] = second compound 0.316 µM, first compound 3.16 µM
[18] = second compound 0.316 µM, first compound 10 µM
[19] = second compound 1 µM, first compound 0.0316 µM
[20] = second compound 1 µM, first compound 0.1 µM
[21] = second compound 1 µM, first compound 0.316 µM
[22] = second compound 1 µM, first compound 1 µM
[23] = second compound 1 µM, first compound 3.16 µM
[24] = second compound 1 µM, first compound 10 µM
[25] = second compound 3.16 µM, first compound 0.0316 µM
[26] = second compound 3.16 µM, first compound 0.1 µM
[27] = second compound 3.16 µM, first compound 0.316 µM
[28] = second compound 3.16 µM, first compound 1 µM
[29] = second compound 3.16 µM, first compound 3.16 µM
[30] = second compound 3.16 µM, first compound 10 µM
[31] = second compound 10 µM, first compound 0.0316 µM
[32] = second compound 10 µM, first compound 0.1 µM
[33] = second compound 10 µM, first compound 0.316 µM
[34] = second compound 10 µM, first compound 1 µM
[35] = second compound 10 µM, first compound 3.16 µM
[36] = second compound 10 µM, first compound 10 µM
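Further: spheroids exposed to agents for 7 days before viability reading.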
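Wherever viability, T/C is given: percent of DMSO vehicle control viability so 100% = vehicle and 0% = no viable signal.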

O=C(c1cc(Cc2n[nH]c(=O)c3ccccc23)ccc1F)N1CCN(C(=O)C2CC2)CC1 + COC1C(OC(N)=O)C(O)C(Oc2ccc3c(O)c(NC(=O)c4ccc(O)c(CC=C(C)C)c4)c(=O)oc3c2C)OC1(C)C
inactive: viability, T/C [1] 38.8% | viability, T/C [2] 37.8% | viability, T/C [3] 35.3% | viability, T/C [4] 40.3% | viability, T/C [5] 35.7% | viability, T/C [6] 34% | viability, T/C [7] 42.7% | viability, T/C [8] 37.2% | viability, T/C [9] 38.5% | viability, T/C [10] 43.9% | viability, T/C [11] 37.2% | viability, T/C [12] 29.8% | viability, T/C [13] 40% | viability, T/C [14] 41.5% | viability, T/C [15] 40.6% | viability, T/C [16] 36.5% | viability, T/C [17] 33.6% | viability, T/C [18] 32.3% | viability, T/C [19] 41.6% | viability, T/C [20] 39.7% | viability, T/C [21] 36.9% | viability, T/C [22] 37.4% | viability, T/C [23] 39.6% | viability, T/C [24] 35.1% | viability, T/C [25] 39% | viability, T/C [26] 42.9% | viability, T/C [27] 41.3% | viability, T/C [28] 40.7% | viability, T/C [29] 36.8% | viability, T/C [30] 36.9% | viability, T/C [31] 38.3% | viability, T/C [32] 36.2% | viability, T/C [33] 36.2% | viability, T/C [34] 40.2% | viability, T/C [35] 42.9% | viability, T/C [36] 31.1%
< 0.0316 µM: IC50 (second compound 0.0316 µM) | IC50 (second compound 0.1 µM) | IC50 (second compound 0.316 µM) | IC50 (second compound 1 µM) | IC50 (second compound 3.16 µM) | IC50 (second compound 10 µM)

O=c1[nH]cc(F)c(=O)[nH]1 + COC1C(OC(N)=O)C(O)C(Oc2ccc3c(O)c(NC(=O)c4ccc(O)c(CC=C(C)C)c4)c(=O)oc3c2C)OC1(C)C
inactive: viability, T/C [1] 101% | viability, T/C [2] 92.8% | viability, T/C [3] 108% | viability, T/C [4] 108% | viability, T/C [5] 91.3% | viability, T/C [6] 75.4% | viability, T/C [7] 109% | viability, T/C [8] 113% | viability, T/C [9] 88.5% | viability, T/C [10] 97.2% | viability, T/C [11] 93.6% | viability, T/C [12] 68.7% | viability, T/C [13] 92.6% | viability, T/C [14] 99.6% | viability, T/C [15] 99.8% | viability, T/C [16] 95.4% | viability, T/C [17] 86% | viability, T/C [18] 65.9% | viability, T/C [19] 104% | viability, T/C [20] 101% | viability, T/C [21] 91% | viability, T/C [22] 105% | viability, T/C [23] 98.5% | viability, T/C [24] 76.8% | viability, T/C [25] 102% | viability, T/C [26] 93.2% | viability, T/C [27] 91.2% | viability, T/C [28] 88.4% | viability, T/C [29] 92.5% | viability, T/C [30] 72.8% | viability, T/C [31] 106% | viability, T/C [32] 108% | viability, T/C [33] 101% | viability, T/C [34] 95.9% | viability, T/C [35] 88.2% | viability, T/C [36] 73%
> 10 µM: IC50 (second compound 0.0316 µM) | IC50 (second compound 0.1 µM) | IC50 (second compound 0.316 µM) | IC50 (second compound 1 µM) | IC50 (second compound 3.16 µM) | IC50 (second compound 10 µM)
